Twelve compounds from patent US20260070945A1, “MACROCYCLIC IMMUNOMODULATORS” (Bristol-Myers Squibb Company, priority 2022, published 2026) can be followed below.

A word on the IC50: it is the concentration at which inhibition is half-maximal.

*1 amine or outer side, *2 acyl side, *3 side chain or, on linkers, in order; H or OH if unused. Where a SMILES comes first, the peptide text is derived from it. Bridges are numbered along the chain shown (N, C = ends). [ ]: non-standard residue; d: D form. The star is where a group is joined. ξ: configuration not given here. X5 = O=C([C@H](Cc1ccc(-c2cc(F)c(F)c(F)c2)cc1)N[*:1])[*:2]; Phe(3-CF3) = N[C@@H](Cc1cccc(C(F)(F)F)c1)C(=O)O; Phe(4-COOH) = N[C@@H](Cc1ccc(C(=O)O)cc1)C(=O)O; Bip = N[C@@H](Cc1ccc(-c2ccccc2)cc1)C(=O)O; NH(CH2)14COOH = O=C(O)CCCCCCCCCCCCCCN*; Phe(3-Me) = Cc1cccc(C[C@H](N)C(=O)O)c1; Abu(3S-NH2) = C[C@H](N)[C@H](N)C(=O)O; NH(CH2)12COOH = O=C(O)CCCCCCCCCCCCN*; Val(3-OH) = CC(C)(O)[C@H](N)C(=O)O; 4Pal = N[C@@H](Cc1ccncc1)C(=O)O; 2Thi = N[C@@H](Cc1cccs1)C(=O)O; Cha = N[C@@H](CC1CCCCC1)C(=O)O; Cit = NC(=O)NCCC[C@H](N)C(=O)O; Ile(3ξ) = CCC(C)[C@H](N)C(=O)O; Thr(3ξ) = CC(O)[C@H](N)C(=O)O; Carboxymethyl = O=C(O)C*; NMeA = CN[C@@H](C)C(=O)O; Aun = NCCCCCCCCCCC(=O)O; Dab = NCC[C@H](N)C(=O)O; Dap = NC[C@H](N)C(=O)O; AEEA = NCCOCCOCC(=O)O

T1 sequence (Q15116 25-288): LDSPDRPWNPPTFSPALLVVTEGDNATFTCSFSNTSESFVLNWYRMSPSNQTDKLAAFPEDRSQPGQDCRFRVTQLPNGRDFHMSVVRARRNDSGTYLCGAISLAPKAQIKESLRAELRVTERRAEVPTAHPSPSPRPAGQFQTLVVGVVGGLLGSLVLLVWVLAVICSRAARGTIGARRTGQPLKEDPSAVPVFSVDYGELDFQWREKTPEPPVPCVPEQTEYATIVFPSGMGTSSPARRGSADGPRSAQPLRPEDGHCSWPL

One experiment addresses T1, PD-1/PD-L1 interaction (PE-labeled human PD-L1-Ig binding to Jurkat cell line over-expressing human PD-1) (Homo sapiens, UniProt Q15116).
T1 construct: expressed in transfected cells; host or cells: Jurkat
The experiment can be described thus: Jurkat-PD-1 Cell Binding High-Content Screening Assay (CBA). Conditions: Jurkat-hPD-1 cells, PE-labeled PD-L1-Ig 20 nM final; read-out: Jurkat HPD1 PDL1 IC50. A digest of the protocol: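 Jurkat-hPD-1 cells (8×10^3/well) in DMEM with 10% fetal calf serum were preincubated with compound for 2 h at 37 °C. PE-labeled PD-L1-Ig was then added at 20 nM final for 1 h. Cells were fixed in paraformaldehyde with Hoechst 33342, washed and imaged by high-content imaging.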
In the case of `CCC(C)[C@@H]1NC(=O)[C@H](Cc2ccc(-c3ccccc3)cc2)NC(=O)[C@H](CC(C)C)NC(=O)[C@H](Cc2c[nH]c3ccccc23)NC(=O)[C@H](CC(=O)O)NC(=O)[C@H](Cc2ccc(OCC(=O)O)cc2)NC(=O)[C@H](C(C)O)NC(=O)CSC[C@@H](C(=O)N[C@H](CC(N)=O)C(=O)NCCOCCOCC(=O)NCCCCCCCCCCC(=O)O)NC(=O)[C@H](CO)NC(=O)[C@H](C(C)C)NC(=O)[C@H](CC(C)C)NC(=O)[C@H](CCN)NC(=O)[C@@H](CC(C)C)NC(=O)[C@H](C)N(C)C1=O` (stereo partly drawn) [Example 2058] ({CH2CO}-[Thr(3ξ)]Y(Carboxymethyl)DWL[Bip][Ile(3ξ)][NMeA][dL][Dab]LVSC[dN][AEEA][Aun]-OH; thioether N-14), the 50% inhibitory concentration (IC50) came to 59.9 nM.

With `CC(C)C[C@H]1NC(=O)[C@H](C)N(C)C(=O)[C@H](Cc2ccc(C(=O)O)cc2)NC(=O)[C@H](Cc2ccc(-c3ccccc3)cc2)NC(=O)[C@H](Cc2ccc(C(=O)O)cc2)NC(=O)[C@H](Cc2cccc(C(F)(F)F)c2)NC(=O)[C@H](CC(=O)O)NC(=O)[C@H](Cc2ccc(OCC(=O)O)cc2)NC(=O)[C@H]([C@H](C)N)NC(=O)CSC[C@@H](C(=O)N[C@@H](CCN)C(=O)NCCCCCCCCCCCCC(=O)O)NC(=O)[C@H](CCC(=O)O)NC(=O)[C@H](C(C)C)NC(=O)[C@H](CC2CCCCC2)NC(=O)[C@H](CCN)NC1=O` [Example 1199] ({CH2CO}-[Abu(3S-NH2)]Y(Carboxymethyl)D[Phe(3-CF3)][Phe(4-COOH)][Bip][Phe(4-COOH)][NMeA][dL][Dab][Cha]VEC[Dab]-{NH(CH2)12COOH}; thioether N-14), the half-maximal inhibitory concentration (IC50) came out at 18 nM. For the compound `Cc1cccc(C[C@@H]2NC(=O)[C@H](CC(=O)O)NC(=O)[C@H](Cc3ccc(OCC(=O)O)cc3)NC(=O)[C@H](Cc3cccs3)NC(=O)CSC[C@@H](C(=O)N[C@@H](CCN)C(=O)NCCCCCCCCCCC(=O)O)NC(=O)[C@H](CO)NC(=O)[C@H](C(C)(C)O)NC(=O)[C@H](CC3CCCCC3)NC(=O)[C@H](CCN)NC(=O)[C@@H](CC(C)C)NC(=O)[C@H](C)N(C)C(=O)[C@H](Cc3ccc(OCC(=O)O)cc3)NC(=O)[C@H](Cc3ccc(-c4ccccc4)cc3)NC(=O)[C@H](Cc3ccc(OCC(=O)O)cc3)NC2=O)c1` [Example 1285] ({CH2CO}-[2Thi]Y(Carboxymethyl)D[Phe(3-Me)]Y(Carboxymethyl)[Bip]Y(Carboxymethyl)[NMeA][dL][Dab][Cha][Val(3-OH)]SC[Dab][Aun]-OH; thioether N-14), the IC50 was 29.2 nM.

Regarding `CC(C)C[C@@H]1NC(=O)[C@H](Cc2c[nH]c3ccccc23)NC(=O)[C@H](CC(=O)O)NC(=O)[C@H](Cc2ccccc2)NC(=O)[C@H](Cc2ccc(O)cc2)NC(=O)CSC[C@@H](C(=O)N[C@@H](CCCCN)C(=O)NCCOCCOCC(=O)NCCCCCCCCCCC(=O)O)NC(=O)[C@H](CO)NC(=O)[C@H](C(C)C)NC(=O)[C@H](CC2CCCCC2)NC(=O)[C@H](CCN)NC(=O)[C@@H](CC(C)C)NC(=O)[C@H](C)N(C)C(=O)[C@H](C(C)C)NC(=O)[C@H](Cc2ccc(-c3ccccc3)cc2)NC1=O` [Example 2097] ({CH2CO}-YFDWL[Bip]V[NMeA][dL][Dab][Cha]VSCK[AEEA][Aun]-OH; thioether N-14), the IC50 was found to be 94.8 nM.

Regarding `Cc1cccc(C[C@@H]2NC(=O)[C@H](CC(=O)O)NC(=O)[C@H](Cc3ccc(OCC(=O)O)cc3)NC(=O)[C@H](C(C)O)NC(=O)CSC[C@@H](C(=O)N[C@@H](CCN)C(=O)NCCCCCCCCCCC(=O)O)NC(=O)[C@H](C(C)O)NC(=O)[C@H](C(C)C)NC(=O)[C@H](CC3CCCCC3)NC(=O)[C@H](CCN)NC(=O)[C@@H](CC(C)C)NC(=O)[C@H](C)N(C)C(=O)[C@H](Cc3ccc(C(=O)O)cc3)NC(=O)[C@H](Cc3ccc(-c4ccccc4)cc3)NC(=O)[C@H](Cc3ccc(C(=O)O)cc3)NC2=O)c1` (stereo partly drawn) [Example 2311] ({CH2CO}-[Thr(3ξ)]Y(Carboxymethyl)D[Phe(3-Me)][Phe(4-COOH)][Bip][Phe(4-COOH)][NMeA][dL][Dab][Cha]V[Thr(3ξ)]C[Dab][Aun]-OH; thioether N-14), the IC50 amounted to 21.3 nM. As for `CC(C)C[C@H]1NC(=O)[C@H](C)N(C)C(=O)[C@H](C(C)C)NC(=O)[C@H](Cc2ccc(-c3ccccc3)cc2)NC(=O)[C@H](C(C)C)NC(=O)[C@H](Cc2c[nH]c3ccccc23)NC(=O)[C@H](CC(=O)O)NC(=O)[C@H](Cc2ccc(OCC(=O)O)cc2)NC(=O)[C@H](Cc2ccncc2)NC(=O)CSC[C@@H](C(=O)N[C@@H](CCCCN)C(=O)NCCOCCOCC(=O)NCCCCCCCCCCC(=O)O)NC(=O)[C@H](CO)NC(=O)[C@H](C(C)C)NC(=O)[C@H](CC2CCCCC2)NC(=O)[C@H](CCN)NC1=O` [Example 2100] ({CH2CO}-[4Pal]Y(Carboxymethyl)DWV[Bip]V[NMeA][dL][Dab][Cha]VSCK[AEEA][Aun]-OH; thioether N-14), the IC50 amounted to 21.7 nM. Consider `Cc1cccc(C[C@@H]2NC(=O)[C@H](CC(=O)O)NC(=O)[C@H](Cc3ccc(OCC(=O)O)cc3)NC(=O)[C@H]([C@@H](C)O)NC(=O)CSC[C@@H](C(=O)N[C@@H](CCN)C(=O)NCCCCCCCCCCC(=O)O)NC(=O)[C@H]([C@@H](C)O)NC(=O)[C@H](C(C)C)NC(=O)[C@H](CC3CCCCC3)NC(=O)[C@H](CCN)NC(=O)[C@@H](CC(C)C)NC(=O)[C@H](C)N(C)C(=O)[C@H](Cc3ccc(OCC(=O)O)cc3)NC(=O)[C@H](Cc3ccc(-c4cc(F)c(F)c(F)c4)cc3)NC(=O)[C@H](Cc3ccc(C(=O)O)cc3)NC2=O)c1` [Example 1236] ({CH2CO}-TY(Carboxymethyl)D[Phe(3-Me)][Phe(4-COOH)][X5]Y(Carboxymethyl)[NMeA][dL][Dab][Cha]VTC[Dab][Aun]-OH; thioether N-14), for which the half-maximal inhibitory concentration (IC50) is 54.5 nM.

As to `CC(C)C[C@@H]1NC(=O)[C@H](Cc2c[nH]c3ccccc23)NC(=O)[C@H](CC(=O)O)NC(=O)[C@H](Cc2ccc(C(=O)O)cc2)NC(=O)[C@H](Cc2ccc(OCC(=O)O)cc2)NC(=O)CSC[C@@H](C(=O)N[C@@H](CCN)C(=O)NCCOCCOCC(=O)NCCCCCCCCCCC(=O)O)NC(=O)[C@H](CCN)NC(=O)[C@H](C(C)(C)O)NC(=O)[C@H](CC2CCCCC2)NC(=O)[C@H](CCN)NC(=O)[C@@H](CC(C)C)NC(=O)[C@H](C)N(C)C(=O)[C@H](C(C)C)NC(=O)[C@H](Cc2ccc(-c3ccccc3)cc2)NC1=O` [Example 1127] ({CH2CO}-Y(Carboxymethyl)[Phe(4-COOH)]DWL[Bip]V[NMeA][dL][Dab][Cha][Val(3-OH)][Dab]C[Dab][AEEA][Aun]-OH; thioether N-14), the concentration for half-maximal inhibition (IC50) is 3.8 nM. For `Cc1cccc(C[C@@H]2NC(=O)[C@H](CC(=O)O)NC(=O)[C@H](Cc3ccc(OCC(=O)O)cc3)NC(=O)[C@H](CN)NC(=O)CSC[C@@H](C(=O)N[C@@H](CCC(=O)O)C(=O)NCCCCCCCCCCC(=O)O)NC(=O)[C@H](CO)NC(=O)[C@H](C(C)C)NC(=O)[C@H](CC(C)C)NC(=O)[C@H](CC(N)=O)NC(=O)[C@@H](CC(C)C)NC(=O)[C@H](C)N(C)C(=O)[C@H](C(C)C)NC(=O)[C@H](Cc3ccc(-c4ccccc4)cc3)NC(=O)[C@H](CC(C)C)NC2=O)c1` [Example 1068] ({CH2CO}-[Dap]Y(Carboxymethyl)D[Phe(3-Me)]L[Bip]V[NMeA][dL]NLVSCE[Aun]-OH; thioether N-14), the half-maximal inhibitory concentration (IC50) was 172 nM.

Still in this experiment, the particulars now being: PE-labeled PD-L1-Ig 20 nM final, Jurkat-hPD-1 cells; read-out: Jurkat HPD1 PDL1 IC50.
On to `Cc1cccc(C[C@@H]2NC(=O)[C@H](CC(=O)O)NC(=O)[C@H](Cc3ccc(C(=O)O)cc3)NC(=O)[C@H](C(C)O)NC(=O)CSC[C@@H](C(=O)N[C@@H](CCN)C(=O)NCCOCCOCC(=O)NCCCCCCCCCCC(=O)O)NC(=O)[C@H](CCC(=O)O)NC(=O)[C@H](CO)NC(=O)[C@H](CC3CCCCC3)NC(=O)[C@H](CCN)NC(=O)[C@@H](CC(C)C)NC(=O)[C@H](C)N(C)C(=O)[C@H](Cc3ccc(C(=O)O)cc3)NC(=O)[C@H](Cc3ccc(-c4ccccc4)cc3)NC(=O)[C@H](Cc3ccc(C(=O)O)cc3)NC2=O)c1` (stereo partly drawn) [Example 2556] ({CH2CO}-[Thr(3ξ)][Phe(4-COOH)]D[Phe(3-Me)][Phe(4-COOH)][Bip][Phe(4-COOH)][NMeA][dL][Dab][Cha]SEC[Dab][AEEA][Aun]-OH; thioether N-14), for which the concentration for half-maximal inhibition (IC50) stood at 41.2 nM. In the case of `CC(=O)NCCCC[C@@H]1NC(=O)[C@H](C(C)(C)O)NC(=O)[C@H](CC2CCCCC2)NC(=O)[C@H](CCN)NC(=O)[C@@H](CC(C)C)NC(=O)[C@H](C)N(C)C(=O)[C@H](CCCNC(N)=O)NC(=O)[C@H](Cc2ccc(-c3ccccc3)cc2)NC(=O)[C@H](Cc2ccc(OCC(=O)O)cc2)NC(=O)[C@H](Cc2cccc(C(F)(F)F)c2)NC(=O)[C@H](CC(=O)O)NC(=O)[C@H](Cc2ccc(OCC(=O)O)cc2)NC(=O)[C@H](Cc2ccc(OCC(=O)O)cc2)NC(=O)CSC[C@@H](C(=O)N[C@@H](CCN)C(=O)NCCCCCCCCCCCCCCC(=O)O)NC1=O` [Example 2624] ({CH2CO}-Y(Carboxymethyl)Y(Carboxymethyl)D[Phe(3-CF3)]Y(Carboxymethyl)[Bip][Cit][NMeA][dL][Dab][Cha][Val(3-OH)]K(Ac)C[Dab]-{NH(CH2)14COOH}; thioether N-14), the concentration for half-maximal inhibition (IC50) is 77 nM. In the case of `CCC(C)[C@@H]1NC(=O)[C@H](Cc2ccc(-c3ccccc3)cc2)NC(=O)[C@H](C(C)C)NC(=O)[C@H](Cc2c[nH]c3ccccc23)NC(=O)[C@H](CC(=O)O)NC(=O)[C@H](Cc2ccc(C(=O)O)cc2)NC(=O)[C@H](Cc2ccc(OCC(=O)O)cc2)NC(=O)CSC[C@@H](C(=O)N[C@@H](CCN)C(=O)NCCOCCOCC(=O)NCCCCCCCCCCC(=O)O)NC(=O)[C@H](CCCNC(N)=O)NC(=O)[C@H](C(C)(C)O)NC(=O)[C@H](CC2CCCCC2)NC(=O)[C@H](Cc2cnc[nH]2)NC(=O)[C@@H](CC(C)C)NC(=O)[C@H](C)N(C)C1=O` (stereo partly drawn) [Example 2523] ({CH2CO}-Y(Carboxymethyl)[Phe(4-COOH)]DWV[Bip][Ile(3ξ)][NMeA][dL]H[Cha][Val(3-OH)][Cit]C[Dab][AEEA][Aun]-OH; thioether N-14), the IC50 amounted to 7.1 nM.
